Measurements: US11584710B2, “Compounds for treating infections” (HORITZONTS TECNOLOGICS HUNGARY KORLÁTOLT FELELOSSÉGU …, priority 2017, dated 2023)

What follows are molecules tested on C. lusitaniae (assay: Antifungal disk diffusion susceptibility test (CLSI M44)). Conditions: Clavispora lusitaniae; C. lusitaniae; 150 μg/disc.
Format: cell-based
Method: (§1) Filamentous fungi and yeasts strains, from clinical origin, were supplied by Microbiology Service from The Princess Hospital, Madrid. They are detailed in Table IX.
(§2) Filamentous fungi and yeast cells suspensions in distilled water was prepared from a culture of 24-48 h, depending on species, in Sabouraud agar. Each suspension was adjusted to a fixed size inoculum of 1-5×10^8 CFU/ml with a spectrophotometer (Ferraro, MJ National Committee for Clinical Laboratory Standards. 2000).
(§3) Antifungal susceptibility tests were developed following the standardized methodology detailed in document CLSI: M44-4: Method for Antifungal Disk diffusion susceptibility testing of yeasts consisting of disk diffusion on agar Muller-Hinton (supplemented with 2% glucose).

Row | SMILES | zone of inhibition at 150 µg/disc
1 | NNC(=O)C(=O)NNc1ccc(Br)cc1 [MSG-216] | 36 mm
2 | COc1ccc(NNC(=O)C(=O)NN)cc1 [MSG-210] | 39 mm

Same assay, conditions: Clavispora lusitaniae; C. lusitaniae; 500 μg/disc

Row | SMILES | zone of inhibition at 500 µg/disc
3 | NNC(=O)C(=O)NNc1ccc(Br)cc1 [MSG-216] | > 40 mm
4 | COc1ccc(NNC(=O)C(=O)NN)cc1 [MSG-210] | > 40 mm

What follows are molecules tested on A. niger in the same assay as above. Conditions: Aspergillus niger; A. niger; 150 μg/disc.
Format: cell-based
Method: as §1, §2, §3

Row | SMILES | zone of inhibition at 150 µg/disc
5 | NNC(=O)C(=O)NNc1ccc(Br)cc1 [MSG-216] | 10 mm
6 | COc1ccc(NNC(=O)C(=O)NN)cc1 [MSG-210] | 27 mm

Same assay, conditions: Aspergillus niger; A. niger; 500 μg/disc

Row | SMILES | zone of inhibition at 500 µg/disc
7 | NNC(=O)C(=O)NNc1ccc(Br)cc1 [MSG-216] | 36 mm
8 | COc1ccc(NNC(=O)C(=O)NN)cc1 [MSG-210] | 40 mm

What follows are molecules tested on A. flavus in the same assay as above. Conditions: Aspergillus flavus; A. flavus; 150 μg/disc.
Format: cell-based
Method: as §1, §2, §3

Row | SMILES | zone of inhibition at 150 µg/disc
9 | NNC(=O)C(=O)NNc1ccc(Br)cc1 [MSG-216] | < 10 mm
10 | COc1ccc(NNC(=O)C(=O)NN)cc1 [MSG-210] | 10 mm

Same assay, conditions: Aspergillus flavus; A. flavus; 500 μg/disc

Row | SMILES | zone of inhibition at 500 µg/disc
11 | NNC(=O)C(=O)NNc1ccc(Br)cc1 [MSG-216] | < 10 mm
12 | COc1ccc(NNC(=O)C(=O)NN)cc1 [MSG-210] | 9 mm

Each molecule was assayed on A. terreus in the same assay as above. Conditions: Aspergillus terreus; A. terreus; 150 μg/disc.
Format: cell-based
Method: as §1, §2, §3

Row | SMILES | zone of inhibition at 150 µg/disc
13 | NNC(=O)C(=O)NNc1ccc(Br)cc1 [MSG-216] | < 10 mm
14 | COc1ccc(NNC(=O)C(=O)NN)cc1 [MSG-210] | 19 mm

Same assay, conditions: Aspergillus terreus; A. terreus; 500 μg/disc

Row | SMILES | zone of inhibition at 500 µg/disc
15 | NNC(=O)C(=O)NNc1ccc(Br)cc1 [MSG-216] | 10 mm
16 | COc1ccc(NNC(=O)C(=O)NN)cc1 [MSG-210] | 22 mm

These molecules were tested on S. cerevisiae in the same assay as above. Conditions: Saccharomyces cerevisiae; S. cerevisiae; 150 μg/disc.
Format: cell-based
Method: as §1, §2, §3

Row | SMILES | zone of inhibition at 150 µg/disc
17 | NNC(=O)C(=O)NNc1ccc(Br)cc1 [MSG-216] | 19 mm
18 | COc1ccc(NNC(=O)C(=O)NN)cc1 [MSG-210] | 28 mm

Same assay, conditions: Saccharomyces cerevisiae; S. cerevisiae; 500 μg/disc

Row | SMILES | zone of inhibition at 500 µg/disc
19 | NNC(=O)C(=O)NNc1ccc(Br)cc1 [MSG-216] | 35 mm
20 | COc1ccc(NNC(=O)C(=O)NN)cc1 [MSG-210] | 30 mm

What follows are molecules tested on A. fumigatus in the same assay as above. Conditions: Aspergillus fumigatus; A. fumigatus; 150 μg/disc.
Format: cell-based
Method: as §1, §2, §3

Row | SMILES | zone of inhibition at 150 µg/disc
21 | NNC(=O)C(=O)NNc1ccc(Br)cc1 [MSG-216] | < 10 mm
22 | COc1ccc(NNC(=O)C(=O)NN)cc1 [MSG-210] | 10 mm

Same assay, conditions: Aspergillus fumigatus; A. fumigatus; 500 μg/disc

Row | SMILES | zone of inhibition at 500 µg/disc
23 | NNC(=O)C(=O)NNc1ccc(Br)cc1 [MSG-216] | 10 mm
24 | COc1ccc(NNC(=O)C(=O)NN)cc1 [MSG-210] | 16 mm

Each molecule was assayed on C. guillermondii in the same assay as above. Conditions: C. guillermondii; 150 μg/disc.
Format: cell-based
Method: as §1, §2, §3

Row | SMILES | zone of inhibition at 150 µg/disc
25 | NNC(=O)C(=O)NNc1ccc(Br)cc1 [MSG-216] | 13 mm
26 | COc1ccc(NNC(=O)C(=O)NN)cc1 [MSG-210] | 32 mm

Same assay, conditions: C. guillermondii; 500 μg/disc

Row | SMILES | zone of inhibition at 500 µg/disc
27 | NNC(=O)C(=O)NNc1ccc(Br)cc1 [MSG-216] | > 40 mm
28 | COc1ccc(NNC(=O)C(=O)NN)cc1 [MSG-210] | 35 mm

Each molecule was assayed on C. tropicalis in the same assay as above. Conditions: Candida tropicalis; C. tropicalis; 150 μg/disc.
Format: cell-based
Method: as §1, §2, §3

Row | SMILES | zone of inhibition at 150 µg/disc
29 | NNC(=O)C(=O)NNc1ccc(Br)cc1 [MSG-216] | 26 mm
30 | COc1ccc(NNC(=O)C(=O)NN)cc1 [MSG-210] | 34 mm

Same assay, conditions: Candida tropicalis; C. tropicalis; 500 μg/disc

Row | SMILES | zone of inhibition at 500 µg/disc
31 | NNC(=O)C(=O)NNc1ccc(Br)cc1 [MSG-216] | > 40 mm
32 | COc1ccc(NNC(=O)C(=O)NN)cc1 [MSG-210] | 36 mm

The molecules below were run on C. albicans in the same assay as above. Conditions: Candida albicans; C. albicans; 150 μg/disc.
Format: cell-based
Method: as §1, §2, §3

Row | SMILES | zone of inhibition at 150 µg/disc
33 | NNC(=O)C(=O)NNc1ccc(Br)cc1 [MSG-216] | 24 mm
34 | COc1ccc(NNC(=O)C(=O)NN)cc1 [MSG-210] | 32 mm

Same assay, conditions: Candida albicans; C. albicans; 500 μg/disc

Row | SMILES | zone of inhibition at 500 µg/disc
35 | NNC(=O)C(=O)NNc1ccc(Br)cc1 [MSG-216] | > 40 mm
36 | COc1ccc(NNC(=O)C(=O)NN)cc1 [MSG-210] | > 40 mm

Each molecule was assayed on C. parapsilosis in the same assay as above. Conditions: Lodderomyces parapsilosis; C. parapsilosis; 150 μg/disc.
Format: cell-based
Method: as §1, §2, §3

Row | SMILES | zone of inhibition at 150 µg/disc
37 | NNC(=O)C(=O)NNc1ccc(Br)cc1 [MSG-216] | 11 mm
38 | COc1ccc(NNC(=O)C(=O)NN)cc1 [MSG-210] | 28 mm

Same assay, conditions: Lodderomyces parapsilosis; C. parapsilosis; 500 μg/disc

Row | SMILES | zone of inhibition at 500 µg/disc
39 | NNC(=O)C(=O)NNc1ccc(Br)cc1 [MSG-216] | > 40 mm
40 | COc1ccc(NNC(=O)C(=O)NN)cc1 [MSG-210] | 32 mm

These molecules were tested on T. pulmonis (assay: Kirby-Bauer disk diffusion susceptibility test). Conditions: 300 μg/disc.
Format: cell-based
Method: (§4) Bacterial strains, from clinical origin, were supplied by the National Center for Microbiology, Institute of Health Carlos III (Majadahonda, Madrid). They are detailed in Table 1.
(§5) Bacterial cells suspension in sterile saline was prepared from a culture of 24-72 h, depending on bacterial species, in Mueller-Hinton Agar with 5% sheep blood. Each suspension was adjusted to a fixed size inoculum of 1-5×10^8 CFU/ml with a spectrophotometer (Ferraro, MJ National Committee for Clinical Laboratory Standards. 2000).
(§6) Kirby-Bauer disk diffusion susceptibility test protocol was utilized to determine the sensitivity or resistance of pathogenic bacteria against the compounds and others antibiotics. The absence of growth around the disks is an indirect measure of the ability of this compound to inhibit an organism (Kirby, W., et al., Antibiotics Annu. 1956-1957:892). After 18 to 72 hours of incubation at 37° C., with or without CO2, under aerobic or anaerobic conditions, depending on the bacterial species, halo of growth inhibition were obtained and evaluated.
(§7) Interpretation of susceptibility and resistance was based on the presence or absence of a zone of inhibition surrounding the disk. Kirby-Bauer disk diffusion susceptibility test is a common method which uses antibiotic-impregnated wafers to test whether bacteria are affected by antibiotics. The size of the zone of inhibition depends on how effective the antibiotic is at stopping the growth of the bacterium. A stronger antibiotic will create a larger zone, because a lower concentration of the antibiotic is enough to stop growth.
(§8) All compounds were tested at 300 μg/disc.

Row | SMILES | Activity detected (mm)
41 | NNC(=O)C(=O)NNc1ccc(Br)cc1 [MSG-216] | 25 mm
42 | COc1ccc(NNC(=O)C(=O)NN)cc1 [MSG-210] | 20 mm

Each molecule was assayed on N. carnea (assay: Kirby-Bauer disk diffusion susceptibility test). Conditions: 300 μg/disc.
Format: cell-based
Method: as §4, §5, §6, §7, §8

Row | SMILES | Activity detected (mm)
43 | NNC(=O)C(=O)NNc1ccc(Br)cc1 [MSG-216] | 14 mm
44 | COc1ccc(NNC(=O)C(=O)NN)cc1 [MSG-210] | 11 mm

These molecules were tested on A. baumannii (assay: Kirby-Bauer disk diffusion susceptibility test). Conditions: 300 μg/disc.
Format: cell-based
Method: as §4, §5, §6, §7, §8

Row | SMILES | Activity detected (mm)
45 | NNC(=O)C(=O)NNc1ccc(Br)cc1 [MSG-216] | 12 mm
46 | COc1ccc(NNC(=O)C(=O)NN)cc1 [MSG-210] | 18 mm

What follows are molecules tested on K. pneumoniae (assay: Kirby-Bauer disk diffusion susceptibility test). Conditions: 300 μg/disc.
Format: cell-based
Method: as §4, §5, §6, §7, §8

Row | SMILES | Activity detected (mm)
47 | NNC(=O)C(=O)NNc1ccc(Br)cc1 [MSG-216] | 11 mm

What follows are molecules tested on N. cyriacigeorgica (assay: Kirby-Bauer disk diffusion susceptibility test). Conditions: 300 μg/disc.
Format: cell-based
Method: as §4, §5, §6, §7, §8

Row | SMILES | Activity detected (mm)
48 | NNC(=O)C(=O)NNc1ccc(Br)cc1 [MSG-216] | 17 mm
49 | COc1ccc(NNC(=O)C(=O)NN)cc1 [MSG-210] | 15 mm
